The values that follow come from PMC6943751 (The Journal of infectious diseases, 2014).

The target in this test is Neuraminidase (NA) of A/Bethesda/956/2006, NA-R292K (Influenza A virus, UniProt F1KL32, R292K). The class given is biochemical, influenza A(H3N2) virus.

A word on the IC50: it is the concentration that inhibits the measured activity by half. For `CCC(CC)[C@H](NC(C)=O)[C@@H]1[C@H](O)[C@@H](C(=O)O)C[C@H]1N=C(N)N` [Peramivir, peramivir], the “Fold-Difference of IC50 compared with the IC50 of WT virus” value was 16.27 ± 0.89 (71) fold. In addition, where the note is “read-out: IC50, nM ± SD”, the 50% inhibitory concentration (IC50) came out at 16.3 nM.
